In patent publication US11865157B2, “Compositions and methods of targeting cancer stem cells” (University of Houston System, priority 2016, dated 2024):
“Also recorded” adds a separate entry of the source. Numbered stars: 1 amine (or outer) side, 2 acyl side, 3 side chain; on linkers, the order of the positions; unused ones are H or OH. Bridge positions count the residues as written; N and C are the ends. Square brackets hold non-standard residues; d marks the D form. Peptide text beside a SMILES is read from it. I, II: the chains in the order shown. Gly(N-piperonyl) = O=C(O)CNCc1ccc2c(c1)OCO2; X1 = CC(c1ccccc1)N(CC(=O)[*:2])[*:1]; Nlys = NCCCCNCC(=O)O; Nme = COCCNCC(=O)O

Assays:
Format in all cases: cell-based
H358 unsorted cells = assay: Scratch (wound healing) assay; details: 10 μM and higher, 24 hours
Protocol: Another stem-cell-associated phenotype is the capacity of stem cells to migrate and repair gaps in a tissue or cell culture. To determine if this capacity is affected by PCS2D1, a scratch (would healing) assay was performed on H358 cells after 24 hour treatment of 0, 0.3, 1, 3 10, 30 or 100 μM of PCS2D1. Each well of confluent H358 unsorted cells was scratched using a 1000 μL pipet tip, washed, then treated with PCS2D1 for 24 hours. Each well was then stained, and the average area of the remaining scratch was calculated from a microscope viewing window near the center of the well.

H358 colonies = assay: Variation of the clonogenicity assay: treatment of established colonies, crystal violet and ALDEFluor staining
Protocol: Another set of experiments were designed to evaluate if differentiated cells from CSCs were targeted by PCS2D1 as well. A variation of the clonogenicity assay was performed, where about 300 unsorted H358 cells were plated to 35 mm plates each and allowed to form colonies for 7 days. After that time, the colonies were treated with either 0, 1, 10, 30, or 100 μM of PCS2D1 for 24 hours, and then stained with crystal violet. The colonies were examined under a microscope. […] To determine if the cells lost are CSCs or the differentiated cells, ALDEFluor staining was performed against some of the colonies at 0 and 100 μM treatment.
(§1) The clonogenicity assay was repeated with H358 cells, 500 cells/well, using 0, 10, 30 and 100 μM PCS2 treatment over 2 weeks. […] To confirm that this was due to the specific targeting on CSCs, the clonogenicity assay was performed again over 8 days, with the treatment performed from day 7 to 8 instead, to allow the colonies to establish. This was done alongside control cells plated on chamber slides and then grown under the same conditions.

H358 cells = assay: Clonogenicity assay under treatment; details: 2 weeks
Protocol: To further validate that PCS2D1 inhibiting CSCs, the effects of PCS2D1 against a stem-cell-associated phenotype were studied with regards to the capacity to form colonies from a single cell by using the clonogenicity assay. About 300 cells were plated onto 35 mm cell culture plates with either 0, 1, 10, 30, or 100 μM of PCS2D1, and allowed to grow for 2 weeks. After staining with crystal violet, both the number of colonies and the overall morphology of the colonies were evaluated.
as §1

H358 ALDH− cells = assay: MTS survival assay on sorted cells
Protocol: To verify that PCS2-treatment has a direct effect on the survival of CSCs, an MTS survival assay was performed on sorted H358 cells. The assay is based on the reduction of MTS tetrazolium compound by viable cells to generate a colored formazan product that is soluble in cell culture media. This conversion is thought to be carried out by NAD(P)H-dependent dehydrogenase enzymes in metabolically active cells. The formazan dye produced by viable cells was quantified by measuring the absorbance at 490-500 nm. H358 cells were stained using the ALDEFluor, then the ALDH+ cells were isolated by the MD Anderson Flow Cytometry and Cell Sorting core. The sorted ALDH+ cells were treated with 1 nM to 100 μM of PCS2D1 for 24 hours, and then the relative amount of surviving cells was determined by MTS. The number of cells in the ALDH+ fraction decreased under the treatment of PCS2D1, while ALDH^− cells were unaffected (FIG. 10). […] Furthermore, this peptoid is still at the initial stage of development and further modifications can be made to optimize and increase the potency.
To verify that PCS2-treatment has a direct effect on the survival of CSCs, an MTS survival assay was performed on sorted H358 cells as described in Example 4. The number of cells in the ALDH+ fraction decreased under the treatment of PCS2D1, while ALDH^− cells were unaffected (FIG. 21). The IC50 was around 2 μM. […]

unsorted H358 cells [1] = assay: MTS cell-proliferation assay on unsorted cells
Protocol: Further experiments were conducted to evaluate how PCS2 affects the proliferation of unsorted cancer cell populations. The standard MTS cell-proliferation assay was performed on unsorted H358 cells (known to contain 5-15% of CSCs) and measured proliferation rates over 6 days, at concentrations ranging from 100 nM to 100 μM of PCS2D1.

unsorted H358 cells [2] = assay: Expression of CSC markers after treatment; details: 100 μM, after 96 hours of treatment

With `COCCNCC(=O)N(CCCCN)CC(=O)N(CC(=O)N(CC(=O)N(CCCCN)CC(=O)N[C@@H](CCCCN)C(=O)N[C@H](CCCCN)C(=O)N[C@@H](CCSC)C(=O)NCCCC[C@H](NC(=O)[C@H](CCSC)NC(=O)[C@@H](CCCCN)NC(=O)[C@H](CCCCN)NC(=O)CN(CCCCN)C(=O)CN(C(=O)CN(Cc1ccc2c(c1)OCO2)C(=O)CN(CCCCN)C(=O)CNCCOC)C(C)c1ccccc1)C(N)=O)C(C)c1ccccc1)Cc1ccc2c(c1)OCO2` (stereo partly drawn) [PCS2D1] (I: H-[Nme][Nlys][Gly(N-piperonyl)][X1][Nlys]K[dK]MK-NH2 / II: H-[Nme][Nlys][Gly(N-piperonyl)][X1][Nlys]K[dK]M; amide I:9-II:C; N-terminus and C-terminus assumed) the “migration (area of remaining scratch)” value (H358 unsorted cells) was “migration was significantly inhibited”, the “ALDH fluorescence of colonies” value (H358 colonies; 100 μM, ALDEFluor staining) was “no significant fluorescence; also recorded: complete loss of ALDH^+ cells” and the “ALDH fluorescent cell number” value (H358 colonies; 10-30 μM, Aldefluor assay) was “reduction in fluorescent cell number”. The “loss of cells from the colony center” value (H358 colonies; colonies grown 7 days, then 24 hours treatment at 10 μM and higher) was “significant loss of cells from the colony center; also recorded: significant loss of “central” cells”, the “morphology of the colonies” value (H358 cells; 10 μM) was “significantly more dispersed colonies” and the colonies formed (H358 cells; about 300 cells, 30 and 100 μM) was “significant decrease in colonies formed”. The “effect on ALDH− cells” value (H358 ALDH− cells) was “unaffected”, the “overall growth of the H358 cell line” value (unsorted H358 cells [1]; 30 μM and higher, by day 2) was “significantly decreased” and the “growth of the H358 cell line” value (unsorted H358 cells [1]; 100 μM, over 6 days) was “no significant growth”. For the same compound, the “expression of ALDH1A3” value (unsorted H358 cells [2]) was “significant drop”, the “expression of PLEC” value (unsorted H358 cells [2]) was “significant drop” and the “expression of SOX2” value (unsorted H358 cells [2]) was “significant drop”.
